Results reported in patent US20250376662A1, “FORWARD PROGRAMMED BLOOD-BRAIN BARRIER MODEL” (priority 2024, published 2025).

Tested on: HUVECs
Test: Gene expression in HUVECs treated with KLF2 lentivirus and CHIR99021
Assay type: cell-based, human
Description: RNA was extracted using Direct-zol RNA Miniprep kit (Zymo, R2050). Reverse transcription was performed to obtain cDNA using GoScript Reverse Transcriptase with Oligo (dT) kit (Promega, A2791). Real-time gene expression analysis was conducted using 25-μl reactions containing SYBR Green PCR Master Mix (Life Technologies, 4309155) along with primers specific for gene of interests (Table 2). PCR was run according to manufacturer protocols on Agilent AriaMX Real-Time PCR system.
Recognizing the strong effect of KLF2 or KLF4 overexpression on BBB gene expression, explored whether activated Wnt signaling impacted the ability of KLF overexpression to modulate BBB gene expression. […] This finding indicates a synergistic effect of these two pathways in inducing BBB gene expression. […] Such shifts in Wnt TF expression have been reported to be correlated with β-catenin levels, and represents higher canonical Wnt activities (Guo et al. 2021). Thus, to further assess the canonical Wnt signaling activation, we used an hPSC Wnt reporter line, H9 7TGP. The engineered 7TGP line expresses GFP under the control of a consensus TCF/LEF binding sequence promoter that reports canonical Wnt/β-catenin signaling activation (Lian et al. 2012; Fuerer and Nusse 2010). […] To assess whether these factors induce BBB gene expression in primary EC, we treated.

In the case of Cc1c[nH]c(-c2cnc(NCCNc3ccc(C#N)cn3)nc2-c2ccc(Cl)cc2Cl)n1 [CHIR99021], the “expression of Wnt signaling TF transcripts LEF1 and TCF7” value is reported as “significantly increased the expression”.
